Key:
[1] = ref unpublished data, cited from earlier work
[2] = weakly basic APIs; cited from earlier work
[3] = Equilibrium solubility in model lipid-based formulations; details: for Miscibility in MC-SEDDS (MCF) / Miscibility in LC-SEDDS (LCF): result in words; for Miscibility in LC-SEDDS (LCF) / Solubility in LC-SEDDS: long chain SEDDS
[4] = Long term storage stability; details: >6 months at −20 °C

Compound: C(=Cc1ccccc1)CN1CCN(C(c2ccccc2)c2ccccc2)CC1.CCCCC(CC)COC(=O)CC(C(=O)OCC(CC)CCCC)S(=O)(=O)O [Cinnarizine docusate]
- Miscibility in LC-SEDDS ([1]; long chain SEDDS): miscible
- Miscibility in MC-SEDDS ([1]; medium chain SEDDS): miscible

Compound: C(=C\c1ccccc1)/CN1CCN(C(c2ccccc2)c2ccccc2)CC1 [Compound 1, cinnarizine]
- pKa [2]: > 8

Compound: C(=C\c1ccccc1)/CN1CCN(C(c2ccccc2)c2ccccc2)CC1 [Compound 1b, cinnarizine]
- Miscibility in MC-SEDDS (MCF) ([3]; medium chain SEDDS): miscible

Compound: C(=C\c1ccccc1)/CN1CCN(C(c2ccccc2)c2ccccc2)CC1 [Compound 1c, cinnarizine]
- Miscibility in MC-SEDDS (MCF) ([3]; medium chain SEDDS): miscible

Compound: C(=C\c1ccccc1)/CN1CCN(C(c2ccccc2)c2ccccc2)CC1 [Compound 1d, cinnarizine]
- Miscibility in LC-SEDDS (LCF) [3]: miscible
- Miscibility in MC-SEDDS (MCF) ([3]; medium chain SEDDS): miscible

Compound: C(=C\c1ccccc1)/CN1CCN(C(c2ccccc2)c2ccccc2)CC1 [Compound 1g, cinnarizine]
- Solubility in LC-SEDDS ([3]; value of the main text): 17 mg/g

Compound: C(=C\c1ccccc1)/CN1CCN(C(c2ccccc2)c2ccccc2)CC1 [Compound 1h, cinnarizine]
- Crystallization after long term storage [4]: showed signs of crystallization

Compound: C(=C\c1ccccc1)/CN1CCN(C(c2ccccc2)c2ccccc2)CC1 [Compound 1i, cinnarizine]
- Miscibility in MC-SEDDS (MCF) ([3]; medium chain SEDDS): miscible

Compound: C(=C\c1ccccc1)/CN1CCN(C(c2ccccc2)c2ccccc2)CC1 [Compound 1j, cinnarizine]
- Miscibility in MC-SEDDS (MCF) ([3]; medium chain SEDDS): miscible

Compound: C(=C\c1ccccc1)/CN1CCN(C(c2ccccc2)c2ccccc2)CC1 [Compound 1k, cinnarizine]
- Miscibility in LC-SEDDS (LCF) [3]: miscible
- Miscibility in MC-SEDDS (MCF) ([3]; medium chain SEDDS): miscible

Compound: CCCCN(CCCC)CC(O)c1cc(Cl)cc2c1-c1ccc(Cl)cc1/C2=C/c1ccc(Cl)cc1 (stereo not shown) [Compound 2, lumefantrine]
- pKa [2]: > 8

Compound: CCCCN(CCCC)CC(O)c1cc(Cl)cc2c1-c1ccc(Cl)cc1/C2=C/c1ccc(Cl)cc1 (stereo not shown) [Compound 2h, lumefantrine]
- LBF solubility enhancement compared to the free base ([3]; compared to the free base form): up to 18 fold
- Miscibility in LC-SEDDS (LCF) [3]: miscible
- Miscibility in MC-SEDDS (MCF) ([3]; medium chain SEDDS): miscible

Compound: CCCCN(CCCC)CC(O)c1cc(Cl)cc2c1-c1ccc(Cl)cc1/C2=C/c1ccc(Cl)cc1 (stereo not shown) [Compound 2k, lumefantrine]
- Solubility in LC-SEDDS ([3]; value of the main text): 53 mg/g
- Solubility in MC-SEDDS ([3]; medium chain SEDDS, value of the main text): 66 mg/g
